System: human MDMs
Assay: DiO oxLDL uptake by PBMC derived macrophages
Format: cell-based
Settings: MDMs co-incubated with PEG-b-PLA NPs loaded with M12 and DiO oxLDL
Method: Peripheral blood mononuclear cells (PBMC) were isolated from human buffy coats (Blood Center of New Jersey; East Orange, N.J.) by Ficoll-Paque (1.077 g mL^−1; GE Healthcare) density gradient. Monocytes were selected by plate adherence after two hours by washing thrice with PBS and cultured for 7 days in RPMI 1640 (ATCC) with 10% FBS, 1% Penicillin/Streptomycin and 50 ng mL^−1 M-CSF for differentiation into macrophages (MDM). Media was exchanged every two to three days. Primary Human Coronary Artery Smooth Muscle Cells (CASMC) (Lonza) between passages 3-6 were cultured in SM-GM2 media (Lonza). CASMC were plated on Type I Collagen coated wells for cytotoxicity experiments. […]
Human MDMs were co-incubated with 5 μg mL^−1 of 3,3′-dioctadecyloxacarbocyanine (DiO) labeled oxLDL (Kalen Biomedical; Montgomery Village, Md.) and either NPs or micelles for 24 h in the presence of 0 (serum-free), 5, 10 or 20% FBS. […] Cells were fixed and counterstained with Hoechst 33342 before epifluorescent imaging on a Nikon Eclipse TE2000-S. Uptake of oxLDL in MDMs was quantified by ImageJ and normalized to cell count. Analyzed data were from three independent experiments performed in triplicate.
Inhibition of oxLDL uptake in human MDMs by AM NPs and analogous micellar systems were determined (FIG. 3B-C). […] Uptake of oxLDL in MDMs was determined by ImageJ analysis of epifluorescent images. […]

With “mucic acid modified with lauroyl groups [M12]” the “therapeutic efficacy towards inhibiting oxLDL uptake” value was “no therapeutic efficacy”.

From patent US10016517B2, “Bioactive amphiphilic polymer stabilized nanoparticles with enhanced stability and activity” (RUTGERS, THE STATE UNIVERSITY OF NEW JERSEY, priority 2011, dated 2018)
